Data as given in patent US20230063230A1, “NURR1 RECEPTOR MODULATORS” (priority 2019, published 2023).

Columns and labels:
Nurr1 target genes = assay: Transcription of Nurr1 target genes in live zebrafish; format: in vivo
Source text: (§1) Dopamine is broken down inside the neurons that produce it, generating oxygen free-radicals and other potentially damaging molecules (53). Among the reactive metabolites is 5,6-dihydroxyindole (DHI), a compound that undergoes spontaneous oxidation to a reactive quinone, which oligomerizes to form a polymer (neuromelanin) of unknown function. This polymer accounts for the dark appearance of nigrostriatal neurons in the normal adult CNS (54,55). Dopamine is also a central player in stress and addiction (3). It is clear that dopamine levels need to be tightly regulated in the CNS. Nurr1 controls all the genes required for dopamine synthesis, but its regulation is poorly understood as the receptor lacks both the canonical NR ligand binding pocket and the classic NR co-regulator binding surface (33). We postulated that Nurr1 might be regulated by dopamine itself, or one of its metabolites, and investigated this possibility using a combination of biophysical and structural techniques. […] Identifying stable analogs of DHI will enable more detailed studies of this intriguing biology.

Nurr1 LBD [1] = target: T1, Nurr1 LBD (Homo sapiens, UniProt P43354); assay: Surface plasmon resonance (SPR) assay; format: binding
T1 sequence (P43354 360-595 limits assumed): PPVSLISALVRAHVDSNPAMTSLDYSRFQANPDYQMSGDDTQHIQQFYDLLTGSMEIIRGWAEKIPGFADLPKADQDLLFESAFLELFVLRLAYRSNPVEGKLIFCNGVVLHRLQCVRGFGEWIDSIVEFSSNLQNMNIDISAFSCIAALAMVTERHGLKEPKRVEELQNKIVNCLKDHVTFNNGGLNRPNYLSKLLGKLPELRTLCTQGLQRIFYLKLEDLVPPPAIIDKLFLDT
Method: Surface Plasmon Resonance Assays. Data were collected using Biacore T200 (GE) instrument at a flow rate of 30 μL/min and at a temperature of 25° C. The running buffer was 25 mM HEPES, pH 7.4, 150 mM NaCl, 0.05% Surfactant Tween 20, and 2% DMSO. The biotinylated Nurr1 LBD was immobilized on a sensor chip SA (GE Healthcare Life Sciences; product number 29104992) or at 6000-7000 RU, or a CAP chip (GE Healthcare Life Sciences; product number 28920234) at 1500-2000 RU. Data collection was performed with kinetic titration mode. Analytes dilutions were carried out starting from DMSO stocks (10 mM). Analytes dissolved in DMSO were added to 1.02x running buffer without DMSO to yield a final DMSO concentration of 2%. When using CAP chip, surface regeneration was performed between each titration curve using 6 M guanidine.HCl+0.25 M NaOH regeneration solution followed by re-immobilization of Nurr1 (as described in the manufacturer's regeneration protocol). Data processing included double referencing (i.e., reference flow cell and buffer subtracted using a buffer injection of appropriate contact time for the given injection). Solvent correction was performed using a standard curve in a range of 1.8-2.3% DMSO.

[2] = target: Nurr1 ligand binding domain (Homo sapiens, UniProt P43354); assay: Crystal structures of ligands covalently bound to Nurr1; conditions: crystal structure, Cys566
Nurr1 ligand binding domain, sequence (P43354 360-595 limits assumed): as above
Source text: First, we used the Nurr1 ligand binding domain (LBD) and a disulfide-trapping screen to identify 50 compounds that conjugate directly to Nurr1, undergoing a disulfide exchange reaction with Cys566.

Nurr1 LBD [3] = target: T1, Nurr1 LBD; assay: Differential scanning fluorimetry (DSF); format: binding
Source text: as §1

[4] = target: T2, Nurr1 LBD fused to Gal4 DBD (Homo sapiens, UniProt P43354); assay: Luciferase reporter assay; format: cell-based
T2 construct: expressed in transfected cells; host or cells: SK-N-BE(2)C cells (ATCC CRL-2268)
T2 sequence (P43354 328-598): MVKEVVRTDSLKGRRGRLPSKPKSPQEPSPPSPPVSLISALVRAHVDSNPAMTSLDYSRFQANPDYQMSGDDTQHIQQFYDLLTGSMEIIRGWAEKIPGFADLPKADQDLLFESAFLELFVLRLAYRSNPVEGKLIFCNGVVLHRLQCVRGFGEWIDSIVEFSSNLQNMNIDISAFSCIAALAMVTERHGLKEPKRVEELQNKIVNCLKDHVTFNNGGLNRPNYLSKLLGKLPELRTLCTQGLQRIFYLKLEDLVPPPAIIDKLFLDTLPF
Method: In particular, direct binding to the Nurr1 LBD in vitro was measured using microscale thermophoresis (MST) and surface plasmon resonance (SPR), and efficacy in cells was measured using a lucifierase reporter assay (Nurr1 LBD fused to Gal4 DBD, measuring effect on luciferase activity) and target gene transcription assays (full length Nurr1, measuring mRNA levels of specific Nurr1 target genes). These assays pointed to a subset of compounds that bind directly to the Nurr1 LBD (by MST and/or SPR) and produce >1.5-fold changes in Nurr1 activity in cells (by Luc and/or TGT assays) (Table 1, Table 2).
Luciferase Reporter Assays. pBIND—Nurr1 is generated by cloning Nurr1 LBD (a.a. 328-598 of human Nurr1) into pBIND vector (Promega E2440). The pBIND vector also contains a Renilla luciferase gene under the control of the SV40 Promoter that can be used to normalize the transfection efficiency. The firefly luciferase reporter pG5-Luc vector (Promega E2440) contains 5 repeats of GAL4 UAS (upstream activation sequence) upstream of luciferase gene. SK—N— BE(2)C cells (ATCC CRL-2268) were transiently transfected with pBIND—Nurr1 and pG5-Luc by FuGENE HD (Promega, E2311) in 96-well-plate with the seeding density of 200,000 cells/mL. […] After 18 hours, the luminescence of Firefly and Renilla luciferase were measured by Dual Luciferase Reporter Assay System (Promega E1960).

Nurr1 in MN9D = assay: qPCR MN9D Nurr1; format: cell-based; conditions: cpds tested at 10 μM, analogs of compound 87
Th in MN9D = assay: qPCR MN9D Th; format: cell-based; conditions: cpds tested at 10 μM, analogs of compound 87

SMILES	Expression of VMAT (Nurr1 target genes; acute exposure (6 h, data not shown))	Transcription of Nurr1 target genes in live zebrafish (Nurr1 target genes; in vivo)	Expression of TH (Nurr1 target genes; longer exposure (24 h))	Off-rate (Nurr1 LBD [1])	Kd (Nurr1 LBD [1]; read-out: Kd for binding to Nurr1) [µM]	Covalent binding to Nurr1 [2]	Stabilization of the Nurr1 LBD, melting temperature (Nurr1 LBD [3])	Nurr1 activity in the reporter assay [4]	fold induction at 10 µM (Nurr1 in MN9D)	fold induction at 10 µM (Th in MN9D)
Oc1cc2cc[nH]c2cc1O [DHI, 5,6-dihydroxyindole]	drives the expression	driving transcription of Nurr1 target genes	drives the expression	very slow off-rate	5	reversible covalent adduct with Cys566	increasing the melting temperature by one degree	stimulating Nurr1 activity	–	–
CC(=O)SCCn1cc(C(C)(C)NC(=O)c2cccc(C#N)c2)nn1 [SP 196, S-2-(4-(2-(3-cyanobenzamido)propan-2-yl)-1H-1,2,3-triazol-1-yl)ethyl ethanethioate]	–	–	–	–	–	–	–	–	> 4	> 1.5
